A value given as a limit tells only on which side of the number the result lay.

In the test the target is GLP-1R (Homo sapiens, UniProt P43220). The experiment in a line: Agonist activity on GLP-1R, HTRF cAMP detection in stably transfected GLP-1R/HEK293 cells. It counts as cell-based. As to conditions: for EC50: 30 min incubation; for Max activity: relative to top concentration of reference GLP-1(7-37). Here is the method:
Detection of Agonist Activity of the Test Compounds on GLP-1R
• 1) The test compound was dissolved in DMSO and diluted 4-fold with Bravo for a total of 10 concentration gradients (the starting concentration was 1 mM). […] HBSS (10 mL) pre-warmed at 37° C. was added, mixed gently, and centrifuged at 1000 rpm for 5 minutes. The supernatant was discarded and another 10 mL of […] was added and mixed gently. […] The plate was shaken to mix at 2000 rpm for 60 seconds. • 7) The cells in the 384-well plate were incubated in CO2 cell incubator at 37° C. for 30 min. • 8) 10 μL of HTRF cAMP detection solution was added to the 384-well plate, stick with sealing film, and incubated at room temperature for 1 hour. • 9) After 1 hour of incubation, the sealing film was removed. The plate was put into the EnVision microplate reader to read the values of OD665 nm and OD615 nm.

GLP-1R, sequence (P43220 24-463): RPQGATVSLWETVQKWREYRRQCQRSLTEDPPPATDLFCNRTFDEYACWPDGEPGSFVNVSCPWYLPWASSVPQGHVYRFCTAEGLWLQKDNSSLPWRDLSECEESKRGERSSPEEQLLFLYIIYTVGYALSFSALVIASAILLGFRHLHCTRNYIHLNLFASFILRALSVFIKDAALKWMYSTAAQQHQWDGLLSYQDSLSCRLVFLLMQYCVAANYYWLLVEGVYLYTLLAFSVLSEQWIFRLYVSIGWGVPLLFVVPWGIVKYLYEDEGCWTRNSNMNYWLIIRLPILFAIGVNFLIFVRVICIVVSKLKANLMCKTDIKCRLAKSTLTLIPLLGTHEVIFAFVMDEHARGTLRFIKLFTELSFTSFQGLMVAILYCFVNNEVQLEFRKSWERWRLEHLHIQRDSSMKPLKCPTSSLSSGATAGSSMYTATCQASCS

The EC50 is the concentration needed to bring the measured effect to its halfway point. On to `N#Cc1ccc(OCc2cccc(OC3CCN(Cc4nc5ccc(C(=O)O)cc5n4Cc4cncn4CC4CC4)CC3)c2)c(F)c1` [Compound C20, 2-((4-(3-((4-cyano-2-fluorophenoxy)methyl)phenoxy)piperidin-1-yl)methyl)-1-((1-(cyclopropylmethyl)-1H-imidazol-5-yl)methyl)-1H-benzo[d]imidazole-6-carboxylic acid], for which the EC50 is 0.425 nM and the Max activity was 137.0%.
For `Cn1c(CN2CCC(Oc3cccc(COc4ccc(Cl)cc4F)n3)CC2)nc2ccc(C(=O)O)cc21` [Compound C22, 2-((4-((6-((4-chloro-2-fluorophenoxy)methyl)pyridin-2-yl)oxy)piperidin-1-yl)methyl)-1-methyl-1H-benzo[d]imidazole-6-carboxylic acid], the EC50 was determined as 30.4 nM.
Turning to `CCn1cncc1Cn1c(Cc2ccc(Oc3cccc(COc4ccc(Cl)cc4F)n3)cc2)nc2ccc(C(=O)O)cc21` [Compound C24, 2-(4-((6-((4-chloro-2-fluorophenoxy)methyl)pyridin-2-yl)oxy)benzyl)-1-((1-ethyl-1H-imidazole-5-yl)methyl)-1H-benzo[d]imidazole-6-carboxylic acid], a half-maximal effect (EC50) was put at 1.67 nM and the Max activity is 76.88%.
With `C#Cc1ccc(OCc2cccc(OC3CCN(Cc4nc5ccc(C(=O)O)cc5n4CC4(CC#N)CC4)CC3)n2)c(F)c1` [Compound C25, 1-((1-(cyanomethyl)cyclopropyl)methyl)-2-((4-((6-((4-ethynyl-2-fluorophenoxy)-methyl)pyridine-2-yl)oxy)piperidin-1-yl)methyl)-1H-benzo[d]imidazole-6-carboxylic acid], the EC50 amounted to 0.512 nM and the Max activity was 133.4%.
In the case of `N#CCC1(Cn2c(CN3CCC(Oc4cccc(COc5ccc(Br)cc5F)n4)CC3)nc3ccc(C(=O)O)cc32)CC1` [Compound C26, 2-((4-((6-((4-bromo-2-fluorophenoxy)methyl)pyridin-2-yl)oxy)piperidin-1-yl)methyl)-1-((1-(cyanomethyl)cyclopropyl)methyl)-1H-benzo[d]imidazole-6-carboxylic acid], the EC50 was found to be 0.215 nM and the Max activity is recorded as 117.3%.
As to `N#Cc1ccc(OCc2cccc(Oc3ccc(Cc4nc5ccc(C(=O)O)cc5n4C[C@@H]4CCO4)cc3)n2)c(F)c1` [Compound C27, (S)-2-(4-((6-((4-cyano-2-fluorophenoxy)methyl)pyridin-2-yl)oxy)benzyl)-1-(oxetan-2-ylmethyl)-1H-benzo[d]imidazole-6-carboxylic acid], the EC50 stood at 8.03 nM.
For the molecule `CCn1cncc1Cn1c(Cc2ccc(Oc3cccc(COc4ccc(C#N)cc4F)n3)cc2)nc2ccc(C(=O)O)cc21` [Compound C28, 2-(4-((6-((4-cyano-2-fluorophenoxy)methyl)pyridin-2-yl)oxy)benzyl)-1-((1-ethyl-1H-imidazol-5-yl)methyl)-1H-benzo[d]imidazole-6-carboxylic acid], the EC50 amounted to 5.05 nM.
In the case of `C#Cc1ccc(OCc2cccc(OC3CCN(Cc4nc5ccc(C(=O)O)cc5n4Cc4cncn4C(C)C)CC3)c2)c(F)c1` [Compound C29, 2-((4-(3-((4-ethynyl-2-fluorophenoxy)methyl)phenoxy)piperidin-1-yl)methyl)-1-((1-isopropyl-1H-imidazol-5-yl)methyl)-1H-benzo[d]imidazole-6-carboxylic acid], a half-maximal effect (EC50) was put at 6.83 nM and the Max activity came out at 121.6%.
The like results for `CC(C)n1cncc1Cn1c(CN2CCC(Oc3cccc(COc4ccc(Br)cc4F)c3)CC2)nc2ccc(C(=O)O)cc21` [Compound C30, 2-((4-(3-((4-bromo-2-fluorophenoxy)methyl)phenoxy)piperidin-1-yl)methyl)-1-((1-isopropyl-1H-imidazol-5-yl)methyl)-1H-benzo[d]imidazole-6-carboxylic acid] were, in that order, 5.85 nM and 121.2%.
As for `CC(C)n1cncc1Cn1c(CN2CCC(Oc3cccc(COc4ccc(C#N)cc4F)n3)CC2)nc2ccc(C(=O)O)cc21` [Compound C31, 2-((4-((6-((4-cyano-2-fluorophenoxy)methyl)pyridin-2-yl)oxy)piperidin-1-yl)methyl)-1-((1-isopropyl-1H-imidazol-5-yl)methyl)-1H-benzo[d]imidazole-6-carboxylic acid], the EC50 stood at 0.833 nM and the Max activity is recorded as 106.6%.
As to `CC(C)n1cncc1Cn1c(CN2CCC(Oc3cccc(COc4ccc(C#N)cc4F)c3)CC2)nc2ccc(C(=O)O)cc21` [Compound C32], the EC50 stood at 0.768 nM and the Max activity is 114.3%.
In the same order, the values of `N#Cc1ccc(OCc2cccc(OC3CCN(Cc4nc5ccc(C(=O)O)cc5n4Cc4cncn4CC4CC4)CC3)n2)c(F)c1` [Compound C33, 2-((4-((6-((4-cyano-2-fluorophenoxy)methyl)pyridin-2-yl)oxy)piperidin-1-yl)methyl)-1-((1-(cyclopropylmethyl)-1H-imidazol-5-yl)methyl)-1H-benzo[d]imidazole-6-carboxylic acid] are 0.068 nM and 99.1%.
In the case of `CCN1C(=O)CCC1Cn1c(CN2CCC(Oc3cccc(COc4ccc(C#N)cc4F)n3)CC2)nc2ccc(C(=O)O)cc21` (stereo not shown) [Compound C34, 2-((4-((6-((4-cyano-2-fluorophenoxy)methyl)pyridin-2-yl)oxy)piperidin-1-yl)methyl)-1-((1-ethyl-5-oxopyrrolidin-2-yl)methyl)-1H-benzo[d]imidazole-6-carboxylic acid], a half-maximal effect (EC50) was put at 11 nM and the Max activity was found to be 113.6%.
For the molecule `CCN1CCC[C@H]1Cn1c(CN2CCC(Oc3cccc(COc4ccc(C#N)cc4F)n3)CC2)nc2ccc(C(=O)O)cc21` [Compound C35, (S)-2-((4-((6-((4-cyano-2-fluorophenoxy)methyl)pyridin-2-yl)oxy)piperidin-1-yl)methyl)-1-((1-ethylpyrrolidin-2-yl)methyl)-1H-benzo[d]imidazole-6-carboxylic acid], the EC50 is more than 100 nM.
For `Cc1cc(C(=O)O)cc2c1nc(CN1CCC(Oc3cccc(COc4ccc(C#N)cc4F)c3)CC1)n2C[C@@H]1CCO1` [Compound C36], the EC50 worked out at 3.92 nM and the Max activity was 104.0%.
Turning to `CCn1cncc1Cn1c(CN2CCC(Sc3cccc(COc4ccc(C#N)cc4F)n3)CC2)nc2ccc(C(=O)O)cc21` [Compound C37, 2-((4-((6-((4-cyano-2-fluorophenoxy)methyl)pyridin-2-yl)thio)piperidin-1-yl)methyl)-1-((1-ethyl-1H-imidazol-5-yl)methyl)-1H-benzo[d]imidazole-6-carboxylic acid], the EC50 came out at 0.223 nM and the Max activity came to 121.0%.
In turn, `CCn1cncc1Cn1c(CN2CCN(Cc3cccc(COc4ccc(C#N)cc4F)n3)CC2)nc2ccc(C(=O)O)cc21` [Compound C38, 2-((4-((6-((4-cyano-2-fluorophenoxy)methyl)pyridin-2-yl)methyl)piperazin-1-yl)methyl)-1-((1-ethyl-1H-imidazol-5-yl)methyl)-1H-benzo[d]imidazole-6-carboxylic acid] yielded an EC50 of more than 100 nM.
Consider `CCn1nccc1Cn1c(CN2CCC(Oc3cccc(COc4ccc(C#N)cc4F)n3)CC2)nc2ccc(C(=O)O)cc21` [Compound C39, 2-((4-((6-((4-cyano-2-fluorophenoxy)methyl)pyridin-2-yl)oxy)piperidin-1-yl)methyl)-1-((1-ethyl-1H-pyrazol-5-yl)methyl)-1H-benzo[d]imidazole-6-carboxylic acid], for which the EC50 came to 7.93 nM and the Max activity turned out to be 142.8%.
On to `CCn1nc(C)cc1Cn1c(CN2CCC(Oc3cccc(COc4ccc(C#N)cc4F)n3)CC2)nc2ccc(C(=O)O)cc21` [Compound C40, 2-((4-((6-((4-cyano-2-fluorophenoxy)methyl)pyridin-2-yl)oxy)piperidin-1-yl)methyl)-1-((1-ethyl-3-methyl-1H-pyrazol-5-yl)methyl)-1H-benzo[d]imidazole-6-carboxylic acid], for which the EC50 amounted to 6.5 nM and the Max activity amounted to 90.7%.
Take `N#Cc1ccc(OCc2cccc(SC3CCN(Cc4nc5ccc(C(=O)O)cc5n4C[C@@H]4CCO4)CC3)n2)c(F)c1` [Compound C41, (S)-2-((4-((6-((4-cyano-2-fluorophenoxy)methyl)pyridin-2-yl)thio)piperidin-1-yl)methyl)-1-(oxetan-2-ylmethyl)-1H-benzo[d]imidazole-6-carboxylic acid]: the EC50 is 4.16 nM and the Max activity was determined as 122.3%.
In turn, `N#Cc1ccc(OCc2cccc(OC3CCN(Cc4cc5ccc(C(=O)O)cc5n4CC4CCO4)CC3)n2)c(F)c1` (stereo not shown) [Compound C42, 2-((4-((6-((4-cyano-2-fluorophenoxy)methyl)pyridin-2-yl)oxy)piperidin-1-yl)methyl)-1-(oxetan-2-ylmethyl)-1H-indole-6-carboxylic acid] came in with an EC50 of more than 100 nM.
For `N#Cc1ccc(COc2cccc(Oc3cc(F)c(Cc4nc5c(F)cc(C(=O)O)cc5n4C[C@@H]4CCO4)cc3F)n2)c(F)c1` [Compound C43, (S)-2-(4-((6-((4-cyano-2-fluorobenzyl)oxy)pyridin-2-yl)oxy)-2,5-difluorobenzyl)-4-fluoro-1-(oxetan-2-ylmethyl)-1H-benzo[d]imidazole-6-carboxylic acid], the EC50 is 5.31 nM and the Max activity is recorded as 88.8%.
Take `N#Cc1ccc(OCc2cccc(OC3CCN(Cc4nc5ccc(C(=O)O)cc5n4CC4COC4)CC3)n2)c(F)c1` [Compound C82, 2-((4-((6-((4-cyano-2-fluorophenoxy)methyl)pyridin-2-yl)oxy)piperidin-1-yl)methyl)-1-(oxetan-3-ylmethyl)-1H-benzo[d]imidazole-6-carboxylic acid]: the response was half-maximal at 7.48 nM (EC50) and the Max activity amounted to 90.7%.

These data come from patent US20250282757A1, “ARYL ETHER-SUBSTITUTED HETEROCYCLIC COMPOUNDS AS GLP1R AGONISTS” (MINDRANK AI LTD., priority 2021, published 2025).
